# Assay results as given in patent publication US6592821B1, “Focusing of microparticles in microfluidic systems” (Caliper Technologies Corp., priority 1999, dated 2003).
# Assays:
# Assay type in all cases: cell-based
# HL-60 cells = assay: TUNEL assay for apoptosis in microfluidic device; details: HL-60 cells treated for 6 hours; FIG. 8, untreated control FIG. 9
# HL60 cells = assay: Annexin-V assay for apoptosis in microfluidic device; details: HL60 cells treated for four hours; FIG. 12, untreated control FIG. 13
# U937 cells [1] = assay: TUNEL assay for apoptosis in microfluidic device; details: U937 cells treated to induce apoptosis; FIG. 5, untreated control FIG. 4
# Method: A TUNEL assay (TdT (Terminal deoxynucleotidyl transferase)-mediated dUTP Nick End Labeling) was used to measure cellular apoptosis in accordance with the above-described methods and systems. In a TUNEL Assay, damaged DNA is labeled with fluorescinated nucleotides. Terminal deoxynucleotidyl transferase (TdT) binds to exposed 3′ ends of DNA fragments generated in response to apoptotic signals and catalyzes the addition of fluorescein-labeled deoxynucleotides. U937 cells were treated with Campthotecin to induce apoptosis. The cells were then harvested and fixed with 4% formaldehyde and stored in 80% ethanol at +4° C. until labeling was performed.
# The cells were rehydrated in TBS buffer. They were then treated with 20 μg/ml of proteinase K for 5 minutes and resuspended in equilibration buffer. The cells were incubated in a working TdT labeling reaction mixture from Oncogene Research Products containing TdtT enzyme and FragEL TdT labeling reaction mix. […]
# After washing the cells in TBS, they were resuspended in Hanks' Balanced Salt Solution with 10% OPTIPREP at 5×10^6/ml and loaded in a microfluidic device having the channel geometry shown in FIG. 1A, for analysis. Fluorescence was detected using 488 nm excitation, while emission was read at 525 nm and 680 nm.
# U937 cells [2] = assay: Annexin-V assay for apoptosis in microfluidic device; details: U937 cells treated to induce apoptosis; FIG. 7, untreated control FIG. 6
# Method: In an Annexin-V assay, change in the outer membrane of apoptotic cells is detected. A membrane component, phosphatidylserine (PS) is translocated to the outer layer. Annexin-V binds to PS and is conjugated to biotin to allow secondary reactions to fluorescently labeled Streptavidin for detection. U937 cells were treated with Campthotecin to induce apoptosis. The cells were harvested and washed in phosphate buffered saline (PBS). Cells were incubated with Annexin-V-Biotin (Boehringer Mannheim) in HEPES buffer, and then incubated with 5 μg streptavidin-Cy5 (Amersham) and […] of Calcein-AM dye in HEPES buffer. The HEPES buffer solution contained 10 mM HEPES, pH 7.4; 140 mM NaCl; and a 5 mM CaCl2. The cells were washed and resuspended in HEPES buffer with 8.5% sucrose and loaded in a microfluidic device for analysis. Fluorescence was detected using excitation at 488 nm and 635 nm, and emission was read at 525 nm and 682 nm.
structure (smiles),measurement,setting,value
CC[C@@]1(O)C(=O)OCc2c1cc1n(c2=O)Cc2cc3ccccc3nc2-1 [Campthotecin],apoptotic cells labeled at DNA damage points vs total cell count,HL-60 cells,almost all cells had sustained apoptotic DNA damage
same,apoptotic cells (Annexin-V-Cy5 labeling vs Calcein live cell count),HL60 cells,almost all cells are apoptotic
same,apoptotic cells (fluorescein end labeled nucleic acid peaks vs SYTO-62 cell peaks),U937 cells [1],"corresponding peaks are seen on both the lower and upper lines, indicating the presence of apoptotic cells"
same,apoptotic cells (Annexin-V-Cy5 peaks vs Calcein live cell count),U937 cells [2],much greater number of peaks representing apoptotic cells
